In patent US10329542B2, “HBV RNAse H purification and enzyme inhibitors” (Saint Louis University, priority 2012, dated 2019):
Where two headings read alike, the source gives them in different places.

Assays:
[1] = biological target: HCV RNA-directed RNA polymerase (Hepatitis C virus genotype 1a, UniProt P27958); experiment: Primed homopolymeric RNA (poly-G) synthesis assay; assay type: biochemical; conditions: 10 μM
Protocol: FIGS. 9A-C. Specificity of anti-HBV RNAseH compounds. (FIG. 9A) Inhibition of HBV genotype D RNAseH by irrelevant compounds at 10 μM in the oligonucleotide-directed RNAseH assay. Compound #4 was employed as an example HBV RNAseH inhibitor. […] The ability of compounds #5, 6 and 8 to inhibit production of poly-G by the HCV RNA-directed RNA polymerase was measured in a primed homopolymeric RNA synthesis assay (Cao, et al., 2011. The compounds were employed at 10 μM. DMSO, vehicle control. (FIG. 9C) Dose-responsiveness of HBV RNAseH inhibition. The effects of compounds #6, 8, and 12 on the RNAseH activity of HRHPL (genotype D) were measured at concentrations ranging from 0.5 to 50 μM. The dose-response profile is plotted for compound #12.

HBV genotype H RNAseH = experiment: Oligonucleotide-directed RNAseH cleavage assay, HBV genotype H; assay type: biochemical, Hepatitis B virus; conditions: 10 μM; ± standard deviation, 3 to 7 replicates
Protocol: (§1) For the oligonucleotide-directed RNAseH cleavage assay (Gong et al., 2001), 6 μl protein extract (typical protein concentration 2.8 mg/ml) was mixed with 0.5 μg internally ^32P-labeled DRF+ RNA (nucleotides 2401-2605 of the duck HBV genome plus 60 nucleotides of flanking sequences from pBluescript) and 3 μg oligonucleotide D2507- or its corresponding negative control D2526+ on ice in 20 μl under the conditions in Table 1. Some reactions in FIG. 5 employed oligonucleotide D2543M-Sal or its D2453+ negative control as indicated. The reactions were incubated at 42° C. for 90 min. and terminated by addition of Laemmli protein loading buffer and boiling. The samples were resolved by 12% SDS-PAGE, the gels were stained with Coomassie blue to monitor protein loading, and labeled RNA was detected by autoradiography. Candidate inhibitors were dissolved in DMSO and added at the indicated concentrations during assembly of the reactions. Control reactions lacking the compounds contained DMSO as a vehicle control. The RNAseH autoradiograms were scanned and quantified with ImageJ. The oligonucleotides were: D2526+([…]; SEQ ID NO:8), D2507-([…]; SEQ ID NO:9), D2453+([…]; SEQ ID NO:10), and D2543M-Sal ([…]; SEQ ID NO:11).
(§2) Oligonucleotide-directed RNAseH cleavage assays (Gong et al., 2001) were performed as described (Tavis et al., 2013). Briefly, HBV RNAseH extracts were mixed with a 264 nt-long internally ^32P-labeled RNA plus an excess of a complementary DNA oligonucleotide or its inverse-complement as a negative control in a final concentration of 65 mM Tris pH 8.0, 190 mM NaCl, 5 mM MgCl2, 5 mM dTT, 0.05% NP40, and 6% glycerol. βTJ was dissolved in DMSO and added at the indicated concentrations; the final concentration of DMSO in all reactions was 1%. The reactions were incubated at 42° C. for 90 min. and terminated by addition of Laemmli protein electrophoresis buffer. The samples were resolved by SDS-PAGE, labeled RNA was detected by autoradiography, the autoradiograms were scanned, and the RNA cleavage products were quantified with ImageJ (National Institutes of Health). IC50 values were calculated by non-linear regression using GraphPad Prism (GraphPad Software, Inc.).

[2] = biological target: T1, HBV genotype D RNAseH (HRHPL) (Hepatitis B virus genotype D subtype ayw, UniProt P03156, INS679M); experiment: Oligonucleotide-directed RNAseH cleavage assay, HBV genotype D; assay type: biochemical; conditions: for Residual activity at 10 uM, Genotype D: ± standard deviation, 3 to 7 replicates; for Activity vs. HBV Biochemical vs. gtD: class by concentration giving inhibition (10, 20, 60 μM)
T1 construct: HRHPL contains HBV genotype D (Genbank V01460) polymerase residues 684-845; made in house; host or cells: E. coli BL21 codon+

[3] = biological target: T2, chimeric HBV:HIV RNAseH HHC1 (Hepatitis B virus genotype D subtype ayw, UniProt P03156, DELINS787-795[…]/INS679M); experiment: Oligonucleotide-directed RNAseH cleavage assay, chimeric HHC1; assay type: biochemical; conditions: 10 μM; ± standard deviation, 3 to 7 replicates
T2 construct: HHC1 is an HRHPL derivative; made in house; host or cells: E. coli BL21 codon+
Excerpt: pCMV-HBV-LE-(CMV-HBV) is an HBV over-length genomic expression vector containing 1.2 copies of the HBV(adw2) genome (Genbank X02763.1) downstream of the CMV promoter cloned into pBS (Promega). Surface protein expression from this vector is ablated by mutating the preS and S open reading frames. pCMV-HBV(genotype D) is an analogous HBV genomic expression construct and was a gift from Dr. Shuping Tong (Brown University). For bacterial expression, codon-optimized cDNA sequences for HRHPL (genotypes A, B, C, D, and H), and noncodon-optimized sequences for HHC1 and HHC2 were cloned by gene synthesis (Genscript) between the NcoI and EcoRI sites into pTrcHis2B (Invitrogen) with a C-terminal hexahistidine tag. HRHPL contains HBV genotype D (Genbank V01460) polymerase residues 684-845. HHC1 is an HRHPL derivative in which HBV polymerase residues 800-808 were replaced with HIV residues corresponding to the RNAseH helix D ([…]; SEQ ID NO:6). HHC2 is an HRHPL derivative in which HBV polymerase residues 800-845 were replaced with HIV residues corresponding to the RNAseH helix D to the C-terminus ([…]; SEQ ID NO:7). The human RNAseH1 gene (NP_002927.2) was cloned with an N-terminal hexahistidine-tag between the BamHI and XhoI sites of pRsetB (Invitrogen) by gene synthesis.
as §1

HBV [4] = experiment: HBV genomic replication assays (Table 2); assay type: cell-based, Hepatitis B virus; conditions: class by active concentration
Protocol: Huh7 cells were maintained in Dulbecco's modified Eagle's medium with 10% fetal bovine serum at 37° C. in 5% CO2. Cells were seeded into 60 mm dishes and transfected at 70% confluency with 2.6 μg of plasmids using TransIT-LT1 (Mirus, Inc.). Test compounds were added the morning following transfection at 10 or 50 μM, and fresh medium containing the compounds was provided every 1-2 days. Four or five days post-transfection HBV cores were isolated by lysis of the cells in 10 mM Tris pH 7.5, 1 mM EDTA, 0.25% NP40, 50 mM NaCl, and 8% sucrose followed by sedimentation through a 30% sucrose cushion as described (Travis, et al., 1998). Viral DNAs were isolated from cytoplasmic core particle preparations by proteinase K digestion followed by phenol/chloroform extraction as described (Gong et al., 2001). Duplicate aliquots of the nucleic acids were treated with 2 U E. coli DNAse-free RNAseH (Invitrogen) at 37° C. for 30 min. or were mock treated. The nucleic acid samples were resolved by electrophoresis on 1.2% agarose gels and detected by Southern blotting with ^32P-labeled HBV DNA as a probe. […]

HBV genotype C RNAseH = experiment: Oligonucleotide-directed RNAseH cleavage assay, HBV genotype C; assay type: biochemical, Hepatitis B virus; conditions: class by concentration giving inhibition (10, 20, 60 μM)
Protocol: as §1
Incremental improvements were developed in extraction of the HBV RNAseH from the bacterial cell pellets since the data were generated for Examples 1 and 2. Key among these was shifting from using a cup sonicator to a probe sonicator and reducing the duration of the sonication period from 3×60 second bursts to 3×20 second bursts. When the […] genotype C clone that had inconsistent activity under the old extraction conditions (FIG. 6C) was isolated under these conditions, it became consistently and robustly active (FIG. 16).

human RNAseH1 = biological target: T3, human RNAseH1 (Homo sapiens, UniProt O60930); experiment: Oligonucleotide-directed RNAseH assay, recombinant human RNAseH1; assay type: biochemical; conditions: class by concentration giving inhibition (10, 20, 60 μM)
T3 construct: hexahistidine (N); made in house; host or cells: E. coli BL21 codon+
T3 sequence (O60930 1-286): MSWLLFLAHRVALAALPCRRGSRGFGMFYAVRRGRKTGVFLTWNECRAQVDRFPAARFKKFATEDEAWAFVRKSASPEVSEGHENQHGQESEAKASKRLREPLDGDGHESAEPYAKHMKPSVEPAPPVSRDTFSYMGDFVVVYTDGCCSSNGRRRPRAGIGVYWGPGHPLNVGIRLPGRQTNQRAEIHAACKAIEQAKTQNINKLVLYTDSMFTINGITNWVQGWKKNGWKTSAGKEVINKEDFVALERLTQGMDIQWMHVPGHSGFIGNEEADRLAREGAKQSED
Protocol: as §1
Therefore, the inventors cloned the human RNAseH1 with an N-terminal hexahistidine tag, expressed it in E. coli, and purified the protein by nickel affinity chromatography. […] This enzyme was active in the oligonucleotide-directed and fluorescent RNAseH assays (FIG. 10B and data not shown). To determine how inhibition of human RNAseH1 compared to inhibition of the HBV RNAseH, the inventor titrated the RNAaseH1 enzyme to yield similar levels of activity as the HBV enzyme, and then the inventor directly compared the ability of compounds #8-12 to inhibit human RNAseH1 and HRHPL at 10 μM. […] Therefore, it is possible to inhibit the HBV RNAseH without inhibiting human RNAseH1.
as §2

rat hepatocytes = conditions: cited from earlier work
HBV [5] = experiment: Quantitative PCR screen of HBV plus-polarity DNA accumulation; assay type: cell-based, Hepatitis B virus; conditions: 60, 20, or 6.7 μM; DNA isolated day 3
Protocol: This assay was employed to screen 7 compounds for their ability to suppress HBV replication (FIG. 17). […] Fresh medium containing compound was provided on days 1 and 2, and capsid-associated HBV DNAs were isolated on day 3. HBV plus-strand DNAs were measured using the cross-gap TaqMan PCR assay.
Plus-polarity preferential quantitative TaqMan PCR for the HBV DNA was conducted employing forward primer […] […] PCR was conducted on purified HBV capsid-derived nucleic acids for 40 cycles of 95° C. for 15 sec. and 65° C. for 1 min. employing the TaqMan universal PCR master mix (Applied Biosystems). Results were standardized against serial dilutions of cloned HBV DNA. The EC50 was estimated by linear regression of the real-time PCR data.

[6] = mice and rats, doses 10 to 58 times those used in humans; cited from earlier work
HIV-1 RNAseH = HIV-1 RNAseH (Human immunodeficiency virus type 1 group M subtype B, UniProt P04585); conditions: read-out: IC50 against the HIV RNAseH; cited from earlier work
[7] = rat hepatocytes, Nakagawa and Tayama, 1998

## Cc1cc(C)c(C#N)c(=N)o1 [Compound 5]
[1]
  Inhibition of poly-G production by HCV RNA polymerase: do not significantly inhibit
HBV genotype H RNAseH
  Residual activity at 10 uM, Genotype H: 76 ± 14 Percent DMSO control
[2]
  Residual activity at 10 uM, Genotype D: 42 ± 15 Percent DMSO control
  Activity vs. HBV Biochemical vs. gtD: + (+ inhibition at 60 μM)
[3]
  Residual activity at 10 uM, HHC1: 36 ± 6 Percent DMSO control
HBV [4]
  Activity vs. HBV Genomic Replication: − (− no activity at 60 μM)

## CCOC(=O)c1sc(NC(=O)CSc2nnc(Cc3ccccc3)o2)c(C#N)c1C [Compound 6]
[1]
  Inhibition of poly-G production by HCV RNA polymerase: do not significantly inhibit
HBV genotype H RNAseH
  Residual activity at 10 uM, Genotype H: 81 ± 24 Percent DMSO control
[2]
  Residual activity at 10 uM, Genotype D: 40 ± 16 Percent DMSO control
  Activity vs. HBV Biochemical vs. gtD: + (+ inhibition at 60 μM)
[2]; at 50 μM
  Inhibition: 75%
[2]; between 3 and 40 μM
  Inhibition plateau: 20-30%
[3]
  Residual activity at 10 uM, HHC1: 55 ± 23 Percent DMSO control
HBV [4]
  Activity vs. HBV Genomic Replication: − (− no activity at 60 μM)

## CC(C)c1cccc(O)c(=O)c1 [Compound 47, beta-thujaplicin]
HBV genotype C RNAseH
  Activity vs. HBV Biochemical vs. gtC: − (− no inhibition at 60 μM)
[2]
  Activity vs. HBV Biochemical vs. gtD: +++ (+++ inhibition at 10 μM)
Human RNAseH1
  Activity vs. human RNAseH1: − (− no inhibition at 60 μM)
Rat hepatocytes; [7]
  Mitochondrial toxicity: mitochondrial toxicity has been reported
HBV [4]
  Activity vs. HBV Genomic Replication: − (− no activity at 60 μM)
HBV [5]
  Suppression of HBV plus-polarity DNA accumulation: did not suppress HBV plus-polarity DNA accumulation

## CC(C)c1ccc(O)c(=O)cc1 [Compound 48]
HBV [5]
  Suppression of HBV plus-polarity DNA accumulation: did not suppress HBV plus-polarity DNA accumulation

## O=c1cccccc1O [Compound 53, Tropolone]
[2]
  Activity vs. HBV Biochemical vs. gtD: ++ (++ inhibition at 20 μM)
Human RNAseH1
  Activity vs. human RNAseH1: − (− no inhibition at 60 μM)
Rat hepatocytes
  Mitochondrial toxicity: mitochondrial toxicity has been reported
HBV [4]
  Activity vs. HBV Genomic Replication: − (− no activity at 60 μM)
HBV [5]
  Suppression of HBV plus-polarity DNA accumulation: inhibited accumulation of HBV plus-polarity DNA to lesser extents

## Nc1ccn([C@H]2CS[C@@H](CO)O2)c(=O)n1 [Lamivudine, 2′,3′-dideoxy-3′-thiacytidine]
[6]
  Carcinogenicity or mutagenicity: no evidence of carcinogenicity or mutagenicity

## O=c1cccccc1 [tropone, reference compound]
Rat hepatocytes; [7]
  Mitochondrial toxicity: mitochondrial toxicity has been reported

## CC(C)c1ccccc(=O)c1O [α-thuaplicin, reference compound]
HIV-1 RNAseH
  IC50: 50 µM

## Manicol [Compound 56]
HBV genotype C RNAseH
  Activity vs. HBV Biochemical vs. gtC: +++ (+++ inhibition at 10 μM)
[2]
  Activity vs. HBV Biochemical vs. gtD: +++ (+++ inhibition at 10 μM)
Human RNAseH1
  Activity vs. human RNAseH1: − (− no inhibition at 60 μM)
HIV-1 RNAseH
  IC50: 60 µM
HBV [4]
  Activity vs. HBV Genomic Replication: + (+, activity detectable at >10 μM)
HBV [5]
  Suppression of HBV plus-polarity DNA accumulation: inhibited accumulation of HBV plus-polarity DNA to lesser extents
